Patent US9545387B2, “Composition and kit comprising piperazine derivatives and metformin, and use thereof in the treatment of diabetes” (METABOLYS, priority 2012, dated 2017)

Assay: oral glucose tolerance test (OGTT) in normal Swiss mice fasting for 17 hours, additive effect with metformin
Format: in vivo
Conditions: metformin 300 mg/kg per os; for Glycaemia, Time −60 mn / Glycaemia, Time 0 mn / Glycaemia, Time 30 mn / Glycaemia, Time 60 mn / Glycaemia, Time 90 mn / Glycaemia, Time 120 mn: OGTT; for Glycaemia, Time −60 mn: given 1 h before glucose load, time −60 min; for Glycaemia, Time 0 mn: time 0 min; for Glycaemia, Time 30 mn: time 30 min; for Glycaemia, Time 60 mn: time 60 min; for Glycaemia, Time 90 mn: time 90 min; for Glycaemia, Time 120 mn: time 120 min
[1] = Table 3, compound 3 50 mg/kg per os
[2] = Table 4, compound 4 50 mg/kg per os

| Compound | Glycaemia, Time −60 mn [1] [mM/liter] | Glycaemia, Time 0 mn [1] [mM/liter] | Glycaemia, Time 30 mn [1] [mM/liter] | Glycaemia, Time 60 mn [1] [mM/liter] | Glycaemia, Time 90 mn [1] [mM/liter] | Glycaemia, Time 120 mn [1] [mM/liter] | drop of glycaemia area under curve after glucose load (study 3, compound 3 50 mg/kg per os) [%] | Glycaemia, Time −60 mn [2] [mM/liter] | Glycaemia, Time 0 mn [2] [mM/liter] | Glycaemia, Time 30 mn [2] [mM/liter] | Glycaemia, Time 60 mn [2] [mM/liter] | Glycaemia, Time 90 mn [2] [mM/liter] | Glycaemia, Time 120 mn [2] [mM/liter] | drop of glycaemia area under curve after glucose load (study 4, compound 4 50 mg/kg per os) [%] |
| --- | --- | --- | --- | --- | --- | --- | --- | --- | --- | --- | --- | --- | --- | --- |
| COc1cccc(N2CCN(CCOc3ccc(C(=O)CCC(=O)O)cc3)CC2)c1 [Compound 3] | 4.4 ± 0.3 | 5.5 ± 0.3 | 11.3 ± 0.6 | 9.7 ± 0.4 | 7.4 ± 0.3 | 7.2 ± 0.5 | 54.9 |  |  |  |  |  |  |  |
| COc1ccccc1N1CCN(CCOc2ccc(CCCCC(=O)O)cc2)CC1 [Compound 4] |  |  |  |  |  |  |  | 3.4 ± 0.2 | 4.0 ± 0.3 | 18.6 ± 3.2 | 13.3 ± 1.5 | 8.8 ± 1.0 | 6.8 ± 1.0 | 18.7 |
